Reference: publication PMC9618103, “Exploratory toxicology studies of 2,3-substituted imidazo[1,2-a]pyridines with antiparasitic and anti-inflammatory properties” (Toxicology Research, 2022)

How the values were obtained:
Wistar rats [1] = assay: Subacute toxicity: serum and urine glucose, urinary protein excretion; assay type: in vivo; settings: rats, p.o., 14 days at 10% of LD50 (CCl4, APAP: once daily, 3 days); mean ± SEM, n = 6
Protocol: (§1) For toxicity tests, acclimatized rats were randomly allocated to 12 groups (n = 12 for the control and n = 6 for the rest groups). […] Meanwhile, the aforementioned vehicles (dose volume 2 mL/kg b.w.) were administered to 3 groups. […] The animals were then housed in individual metabolic cages to collect urine for a period of 6 h and then the volume was recorded. Afterward, blood samples were obtained and the serum was separated by centrifugation at 1,620 × g for 10 min at room temperature.
Serum and urine glucose concentration were calculated using GOD-PAP kits (RANDOX, Laboratories Ltd, UK). Urinary protein was quantified using the Bradford method.[29]
(§2) Serum and urinary creatinine were determined by the Jaffe method. With this value, evaluation was made of the fractional excretion of sodium (FES), fractional excretion of potassium (FEP), and fractional excretion of glucose.[30]^,[31] The GFR was calculated from clearance of endogenous creatinine using the conventional equation:where GFR (CCr) is the creatinine clearance rate (mL/min); UCr and SCr are the creatinine concentrations (mg/dL) in urine and serum, respectively; and φ is the urinary flow rate (UFR) (mL/min). To avoid the error from the tubular secretion of creatinine found in males, only female animals were used.
(§3) The levels of sodium and potassium were measured in urine and serum using a flame photometer (Corning 400, Medfield, United States). Calculation was made of the clearance, fractional excretion, and filtered load of sodium (FLS), filtered load of potassium (FLP), and filtered load of glucose (FLG) using the conventional equations:where CX is the clearance rate of X (mL/min), CCr is the creatinine clearance rate (mL/min), UX and SX are the […] concentrations of X, respectively, φ is the UFR (mL/min), FEX is the fractional excretion (%) of X, and FLX is the filtered load of X in μEq/min (Na^+ or K^+) or mg/min (glucose).

Wistar rats [2] = assay: Subacute toxicity: glomerular filtration rate (creatinine clearance) and serum creatinine; assay type: in vivo; settings: rats, p.o., 14 days at 10% of LD50 (CCl4, APAP: once daily, 3 days); mean ± SEM, n = 6
Protocol: as §1, §2

[3] = system: renal secretory pathway of organic anions; assay: Active tubular secretion of organic acids (PAH uptake in kidney cortex slices); assay type: in vivo, rats; settings: kidney cortex slices, PAH 1 mM, 1 h, 25 °C; rats, p.o., 14 days at 10% of LD50 (CCl4, APAP: once daily, 3 days); mean ± SEM, n = 6
Protocol: (§4) For toxicity tests, acclimatized rats were randomly allocated to 12 groups (n = 12 for the control and n = 6 for the rest groups). […] Meanwhile, the aforementioned vehicles (dose volume 2 mL/kg b.w.) were administered to 3 groups. […] Upon completion of the 14-day treatments and before sample collection, the bladders of animals were emptied by gentle pressure on the lower part of the abdomen to induce urination. The animals were then housed in individual metabolic cages to collect urine for a period of 6 h and then the volume was recorded. Afterward, blood samples were obtained and the serum was separated by centrifugation at 1,620 × g for 10 min at room temperature.
p-Aminohippuric acid (PAH) was used as an indicator of the renal secretory pathway of organic anions. Kidneys were extracted and immediately submerged in Ringer solution (pH = 7.4 and mOsm = 290 ± 10 mOsm/kg) under constant bubbling with O2/CO2 (95/5%). The kidneys were decapsulated and slices of the kidney cortex were obtained, which were then incubated in Ringer solution containing PAH (1 mM) for 1 h at 25 °C under constant bubbling with O2/CO2 (95/5%). The levels of PAH were quantified with the Bratton-Marshall method and results were expressed as the PAH tissue/medium ratio (PAH t/m ratio).[31]^,[32]

Wistar rats [4] = assay: Subacute toxicity: water and electrolyte balance (osmolality, sodium, potassium, urinary flow); assay type: in vivo
Protocol: as §1
Osmolality of serum and urine were assessed (in triplicate) by using a vapor pressure osmometer (Wescor 5500, Logan, United States). U/S ratio as well as osmolar (COsm) and free water clearances were calculated via conventional equations:where UOsm and SOsm are the osmolality values (mOsm/Kg) in urine and serum, respectively, and φ is the UFR (mL/min).
as §3

Wistar rats [5] = assay: Subacute toxicity: serum alanine aminotransferase and alkaline phosphatase activity; assay type: in vivo; settings: for Alanine Aminotransferase / Alkaline Phosphatase: serum, rats, p.o., 14 days at 10% of LD50 (CCl4, APAP: once daily, 3 days), mean ± SEM, n = 6
Protocol: as §4
The activities of serum alanine aminotransferase (ALT) and alkaline phosphatase (ALP) were measured with standard kits (RANDOX, Laboratories Ltd, UK).

Wistar rats [6] = assay: Hepatic and renal reactive oxygen species (DCF formation); assay type: in vivo; settings: for hepatic ROS, change in words / renal ROS, change in words: compared to the control group (CCl4 also versus PO); for Renal ROS: kidney; for Renal ROS / Hepatic ROS: rats, p.o., 14 days at 10% of LD50 (CCl4, APAP: once daily, 3 days), mean ± SEM, n = 6; for Hepatic ROS: liver
Protocol: as §4
Reactive oxygen species (ROS) were measured by formation of 2′,7′-dichlorofluorescein (DCF). An aliquot of 10 μL (kidney) or 5 μL (liver) of the homogenates was added to 1,940 or 1,945 μL of TRIS:HEPES (18:1) and was incubated in the presence of 50 μL of 2′,7′-dichlorofluorescein diacetate for 1 h at 37 °C. In order to quench the reaction, the mixture was chilled using an ice bath. The fluorescence was measured using a Shimadzu fluorometer (Japan; λex = 488 nm; λem = 525 nm). The results were expressed as nM DCF formed per mg protein/h.[33]
(§5) The protein concentration in homogenates was measured by the Bradford method.[29]

Wistar rats [7] = assay: Hepatic and renal lipid peroxidation (lipid-soluble fluorescence); assay type: in vivo; settings: for hepatic LPO, change in words / renal LPO, change in words: compared to the control group (CCl4 also versus PO); for Renal Lipoperoxidation: kidney; for Renal Lipoperoxidation / Hepatic Lipoperoxidation: rats, p.o., 14 days at 10% of LD50 (CCl4, APAP: once daily, 3 days), mean ± SEM, n = 6; for Hepatic Lipoperoxidation: liver
Protocol: as §4
Lipid peroxidation (LPO) was evaluated by the formation of lipid-soluble fluorescence, as previously described. Briefly, kidney and liver tissues were homogenized in 3 and 5 mL of phosphate buffer (0.2 M, pH = 7.4), respectively. A volume of 1 mL (kidney) or 0.8 mL (liver) of the homogenates was added to 7 mL of chloroform-methanol (2:1, v/v), and after 15 s of vortex mixing, the resulting mixture was cooled using an ice bath for 30 min to allow for phase separation. The fluorescence of the organic phase was measured using a Shimadzu fluorometer (Japan; λex = 370 nm; λem = 430 nm), whose sensitivity was adjusted to 140 fluorescence units by using 1 μg/mL of quinine sulfate in 50 mM H2SO4. The results were expressed as relative fluorescence units per milligram of protein.[33]
as §5

[8] = rats, p.o., 14 days at 10% of LD50 (CCl4, APAP: once daily, 3 days), mean ± SEM, n = 6
[9] = compared to the control (CCl4 also versus PO)

ClC(Cl)(Cl)Cl [CCl4, carbon tetrachloride, reference compound]
Filtered Load of Glucose (Wistar rats [1]): 4.64 ± 1.71 mg/min
Fractional Excretion of Glucose (Wistar rats [1]): 0.02 ± 0.01%
Serum Glucose (Wistar rats [1]): 103.17 ± 4.35 mg/dL
Urinary Glucose Excretion (Wistar rats [1]): 265.11 ± 89.54 ng/min
Urinary Protein Excretion (Wistar rats [1]): 12.15 ± 4.49 µg/min
Glomerular Filtration Rate (Wistar rats [2]): 4.30 ± 1.47 mL/min
Serum Creatinine (Wistar rats [2]): 0.45 ± 0.13 mg/dL
PAH t/m ratio [3]: 2.08 ± 0.11
Filtered Load of Potassium (Wistar rats [4]; [8]): 17.22 ± 5.29 µEq/min
Filtered Load of Sodium (Wistar rats [4]; [8]): 592.11 ± 199.71 µEq/min
Fractional Excretion of Potassium (Wistar rats [4]; [8]): 6.86 ± 2.06%
Fractional Excretion of Sodium (Wistar rats [4]; [8]): 0.21 ± 0.06%
Serum Osmolality (Wistar rats [4]; [8]): 305.77 ± 3.41 mOsm/kg
Serum Potassium (Wistar rats [4]; [8]): 4.27 ± 0.25 mEq/L
Serum Sodium (Wistar rats [4]; [8]): 139.08 ± 1.63 mEq/L
U/S Osm ratio (Wistar rats [4]; [8]): 3.27 ± 0.37
Urinary Flow Rate (Wistar rats [4]; [8]): 6.59 ± 1.39 µL/min
Urinary Potassium Excretion (Wistar rats [4]; [8]): 0.73 ± 0.10 µEq/min
Urinary Sodium Excretion (Wistar rats [4]; [8]): 0.72 ± 0.13 µEq/min
serum ALP, change in words (Wistar rats [5]; [9]): increased
serum ALT, change in words (Wistar rats [5]; [9]): increased
Alanine Aminotransferase (Wistar rats [5]): 127.80 ± 4.08 U/L
Alkaline Phosphatase (Wistar rats [5]): 328.19 ± 61.36 U/L
hepatic ROS, change in words (Wistar rats [6]): increased
renal ROS, change in words (Wistar rats [6]): increased
Renal ROS (Wistar rats [6]): 333.27 ± 74.29 nM de DCF/mg protein/h
Hepatic ROS (Wistar rats [6]): 1434.82 ± 121.35 nM de DCF/mg protein/h
hepatic LPO, change in words (Wistar rats [7]): increased
renal LPO, change in words (Wistar rats [7]): increased
Renal Lipoperoxidation (Wistar rats [7]): 0.61 ± 0.07 URF/mg protein
Hepatic Lipoperoxidation (Wistar rats [7]): 1.06 ± 0.11 URF/mg protein

CC(=O)Nc1ccc(O)cc1 [APAP, acetaminophen, reference compound]
Filtered Load of Glucose (Wistar rats [1]): 1.35 ± 0.27 mg/min
Fractional Excretion of Glucose (Wistar rats [1]): 0.01 ± 1.9E-3%
Urinary Glucose Excretion (Wistar rats [1]): 87.10 ± 19.92 ng/min
Urinary Protein Excretion (Wistar rats [1]): 0.94 ± 0.24 µg/min
serum potassium, change in words (Wistar rats [4]; compared to the control group, significant by PLS VIP and ANOVA): decreased
Filtered Load of Potassium (Wistar rats [4]; [8]): 3.99 ± 0.80 µEq/min
Filtered Load of Sodium (Wistar rats [4]; [8]): 147.38 ± 31.27 µEq/min
Fractional Excretion of Potassium (Wistar rats [4]; [8]): 12.50 ± 3.12%
Fractional Excretion of Sodium (Wistar rats [4]; [8]): 0.27 ± 0.09%
Serum Osmolality (Wistar rats [4]; [8]): 295.68 ± 1.57 mOsm/kg
Serum Potassium (Wistar rats [4]; [8]): 3.78 ± 0.22 mEq/L
Serum Sodium (Wistar rats [4]; [8]): 138.58 ± 2.37 mEq/L
Urinary Flow Rate (Wistar rats [4]; [8]): 6.19 ± 1.15 µL/min
Urinary Potassium Excretion (Wistar rats [4]; [8]): 0.47 ± 0.14 µEq/min
Urinary Sodium Excretion (Wistar rats [4]; [8]): 0.46 ± 0.21 µEq/min
Alanine Aminotransferase (Wistar rats [5]): 41.47 ± 4.80 U/L
Alkaline Phosphatase (Wistar rats [5]): 151.97 ± 11.19 U/L
hepatic ROS, change in words (Wistar rats [6]): increased
renal ROS, change in words (Wistar rats [6]): increased
Renal ROS (Wistar rats [6]): 421.62 ± 56.57 nM de DCF/mg protein/h
Hepatic ROS (Wistar rats [6]): 1740.28 ± 231.55 nM de DCF/mg protein/h
hepatic LPO, change in words (Wistar rats [7]): increased
renal LPO, change in words (Wistar rats [7]): increased
Renal Lipoperoxidation (Wistar rats [7]): 0.46 ± 0.06 URF/mg protein
Hepatic Lipoperoxidation (Wistar rats [7]): 1.06 ± 0.06 URF/mg protein
